Experimental data as given in patent publication US8785399B2, “Antibacterial peptides” (Spiderbiotech S.R.A., priority 2008, dated 2014).
≈ marks a conversion by molar mass, not a printed value. Positions of bridges follow the written chain, without caps; N, C: chain ends. Non-standard residues stand in square brackets, D forms with d. Residues, ends and D or L forms follow the SMILES beside them. Chains are numbered I, II in the order given. βAla = NCCC(=O)O

Tests used:
Shigella = assay: MIC vs clinical isolates, Shigella; type: cell-based; details: Shigella strain ND024108
Description: (§1) Determination of MIC. MICs were determined in MHB by the broth microdilution methodology, according to CLSI procedure (formerly NCCLS, Ref. 11) by using final bacterial inocula of 1-5×10^5 CFU/mL. Assays were performed in sterile 96-well microtiter plates with round bottom wells (Corning Costar). Plates were incubated at 37° C. and read after 20-24 h. MIC was defined as the lowest drug concentration causing complete suppression of visible bacterial growth. All compounds were dissolved in (5% v/v DMSO).
(§2) These compounds were tested against a large panel of Gram-negative clinical isolates and the relative MIC values were reported in Table 5 (parts 1-3)

[1] = tested on: Pseudomonas aeruginosa ATCC 27853; assay: MIC by broth microdilution, P. aeruginosa reference strain; type: cell-based
Description: as §1
(§3) These peptides were synthesized individually, in order to assay the activity of each sequence.

[2] = tested on: Klebsiella pneumoniae ATCC 10031; assay: MIC by broth microdilution, K. pneumoniae reference strain; type: cell-based
Description: as §1, §3

Proteus mirabilis = type: cell-based
Description: as §1, §2

Klebsiella pneumoniae = type: cell-based
Description: as §1, §2

Acinetobacter baumannii = type: cell-based
Description: as §1, §2

Escherichia coli = type: cell-based
Description: as §1, §2

Pseudomonas aeruginosa = type: cell-based
Description: as §1, §2

Enterobacter cloacae = type: cell-based
Description: as §1, §2

Acinetobacter iwoffi = type: cell-based
Description: as §1, §2

Serratia marcescens = type: cell-based
Description: as §1, §2

[3] = tested on: Stenotrophomonas maltophilia; type: cell-based
Description: as §1, §2

Klebsiella oxytoca = type: cell-based
Description: as §1, §2

E. coli ATCC 25922 = assay: MIC by broth microdilution, E. coli reference strain; type: cell-based, Escherichia coli
Description: as §1
All natural aminoacids have been divided into three groups based on their chemical-physical properties. A total amount of 27 minilibraries, each one containing six peptide in equimolar amounts, were obtained and assayed against E. coli ATCC 25922 as reference strain. MIC (Minimum Inhibitory Concentration) is defined as the lowest concentration inhibiting 100% of visible growth.

[4] = tested on: Staphylococcus aureus ATCC 25923
Description: as §1, §3

whole blood = type: cell-based
Description: Whole blood was collected in a sterile tube with a 4% w/v sodium citrate solution (in a 1:10 ratio sodium citrate:whole blood) and conserved in ice. Serial dilutions of ID24 (1 mg/mL to 62.5 ug/mL) were added to whole blood in a ratio 1:1 or 1:10. The haemolytic potential was expressed relative to saponine, added in the same ratio, considered as 100% haemolysis. The negative control was whole blood in physiologic solution, which gave minimal lysis. 100 uL aliquots of each suspension were added in sterile 96-well microtiter plates (Nunc) in triplicate. The plates were incubated at 37° C. for 30 minutes.
Subsequently, the suspension were pelletted by centrifugation at 1000 g for 10 minutes at 4° C. One hundred microliters of supernatant from each well was transferred accordingly to a new 96-well microtiter plate, and the amount of haemoglobin released into the supernatant was determined by reading the absorbance at 560 nm.
In Table 8, haemolysis percentages of different amounts of ID24 in a 1:1 ratio with whole blood are listed, while in Table 9 haemolysis percentages of different amounts of ID24 in a 1:10 ratio with whole blood are reported. The amount of haemoglobin released into the supernatant was determined by reading the absorbance at 560 nm.

Molecule	MIC (ug/mL) P. aeruginosa ([1]; ATCC 27853) [µg/mL]	MIC (ug/mL) K. pneumoniae ([2]; ATCC 10031) [µg/mL]	MIC (ug/mL) E. coli (E. coli ATCC 25922; ATCC 25922) [µg/mL]	MIC (ug/mL) S. aureus [4] [µg/mL]	other results
CC[C@H](C)[C@H](NC(=O)[C@H](CCCCN)NC(=O)[C@H](CCCCN)NC(=O)[C@@H](N)Cc1c[nH]c2ccccc12)C(=O)N[C@@H](CCCNC(=N)N)C(=O)N[C@H](C(=O)N[C@@H](CCCNC(=N)N)C(=O)N[C@@H](CC(C)C)C(=O)N[C@@H](CO)C(=O)N[C@@H](C)C(=O)NCCCC[C@H](NC(=O)[C@H](C)NC(=O)[C@H](CO)NC(=O)[C@H](CC(C)C)NC(=O)[C@H](CCCNC(=N)N)NC(=O)[C@@H](NC(=O)[C@H](CCCNC(=N)N)NC(=O)[C@@H](NC(=O)[C@H](CCCCN)NC(=O)[C@H](CCCCN)NC(=O)[C@@H](N)Cc1c[nH]c2ccccc12)[C@@H](C)CC)C(C)C)C(=O)NCCC(N)=O)C(C)C [ID18, (H-W-KKIRVRLSA)2-Lys-β-Ala-NH2] (I: H-WKKIRVRLSAK[βAla]-NH2 / II: H-WKKIRVRLSA; amide I:11-II:C)	–	–	–	–	MIC (Shigella): 4 µg/mL (≈ 1.49 µM); MIC (ug/mL) P. aeruginosa ([1]; Table 4): 32 µg/mL (≈ 11.9 µM); MIC (ug/mL) K. pneumoniae ([2]; Table 4): 32 µg/mL (≈ 11.9 µM); MIC (Proteus mirabilis): >128 µg/mL; MIC Range (Proteus mirabilis): >128 µg/mL; MIC Range (Klebsiella pneumoniae): 4 to 16 µg/mL; MIC Range (Acinetobacter baumannii): 8 to 16 µg/mL; MIC Range (Escherichia coli): 2 to 32 µg/mL; MIC Range (Pseudomonas aeruginosa): 8 to 16 µg/mL; MIC Range (Enterobacter cloacae): 4 to 32 µg/mL; MIC (Acinetobacter iwoffi): 16 µg/mL (≈ 5.94 µM); MIC (Serratia marcescens): >128 µg/mL; MIC Range [3]: 8 to 32 µg/mL; MIC (Klebsiella oxytoca): 32 µg/mL (≈ 11.9 µM); MIC Range (Klebsiella oxytoca): 32 µg/mL (≈ 11.9 µM); MIC (ug/mL) E. coli (E. coli ATCC 25922; Table 4): 4 µg/mL (≈ 1.49 µM)
H-LKKIRVRLSA-OH [ID4, H-L-KKIRVRLSA-OH]	256	512	256	>512	–
H-QFKIRVRLSA-OH [ID8, H-Q-F-KIRVRLSA-OH]	128	>512	128	>512	–
H-QIKIRVRLSA-OH [ID9, H-Q-I-KIRVRLSA-OH]	>512	512	512	>512	–
H-QLKIRVRLSA-OH [ID10, H-Q-L-KIRVRLSA-OH]	128	>512	128	>512	–
H-QVKIRVRLSA-OH [ID11, H-Q-V-KIRVRLSA-OH]	256	>512	256	>512	–
H-QWKIRVRLSA-OH [ID12, H-Q-W-KIRVRLSA-OH]	64	>512	64	>512	–
H-QYKIRVRLSA-OH [ID13, H-Q-Y-KIRVRLSA-OH]	>512	>512	>256	>512	–
H-VKKIRVRLSA-OH [ID5, H-V-KKIRVRLSA-OH]	512	>512	512	512	–
H-WKKIRVRLSA-OH [ID6, H-W-KKIRVRLSA-OH]	128	256	64 to 128	512	–
H-YKKIRVRLSA-OH [ID7, H-Y-KKIRVRLSA-OH]	256	>512	256	>512	–
saponine	–	–	–	–	Haemolysis % (whole blood): 100%; Haemolysis, % (whole blood): 100%
